# How the values were obtained:
# [1] = target: muscarinic cholinergic receptors; assay: ^3H-oxotremorine-M binding inhibition; settings: inhibition of binding of ^3H-oxotremorine-M; read-out: inhibition costant (Ki)
# m4 receptors = m4 receptors (Homo sapiens, UniProt P08173); assay type: cell-based; settings: CHO m4 cells treated with pertussis toxin
# Chain of m4 receptors (P08173 whole entry): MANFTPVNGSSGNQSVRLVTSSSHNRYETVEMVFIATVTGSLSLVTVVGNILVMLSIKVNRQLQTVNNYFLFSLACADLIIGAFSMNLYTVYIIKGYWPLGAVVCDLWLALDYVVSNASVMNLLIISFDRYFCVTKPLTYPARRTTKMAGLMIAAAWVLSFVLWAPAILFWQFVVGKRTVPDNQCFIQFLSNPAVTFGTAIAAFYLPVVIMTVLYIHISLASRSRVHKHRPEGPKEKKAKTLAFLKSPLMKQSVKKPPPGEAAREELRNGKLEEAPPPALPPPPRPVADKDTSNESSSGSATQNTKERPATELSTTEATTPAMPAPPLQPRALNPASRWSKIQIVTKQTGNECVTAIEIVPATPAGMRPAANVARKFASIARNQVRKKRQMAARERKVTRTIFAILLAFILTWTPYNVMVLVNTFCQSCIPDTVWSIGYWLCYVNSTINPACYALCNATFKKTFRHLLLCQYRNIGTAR
structure (smiles),measurement,setting,value
"CCCCCCOc1nsnc1C1=CCCN(C)C1 [Xanomeline, 3-(4-hexyloxy-1,2,5-thiadiazol-3-yl)-1,2,5,6-tetrahydro-1-methylpyridine]",Ki,[1],2 nM
same,formation of cAMP,m4 receptors,efficaciously and potently stimulated the formation of cAMP

# — patent EP0821957A2 (priority 1996, dated 1998)
